Reference: patent US20180214442A1, “METHODS FOR ATTENUATING OR PREVENTING MU(μ)-OPIOID RECEPTOR MEDIATED TOLERANCE AND OPIOID-INDUCED […]” (The Board of Trustees of the Leland Stanford Junior …, priority 2017, published 2018)

Tests used:
[1] = test system: light-evoked excitatory postsynaptic currents (EPSCs) in lamina I-II outer neurons; experiment: Spinal cord slice whole-cell recording of light-evoked EPSCs from ChR2-expressing TRPV1 nociceptors; assay type: cell-based, mouse
Excerpt: FIG. 4. Opioid-induced spinal long-term potentiation (LTP) is initiated by presynaptic MOR in nociceptors. (a,b) MOR cKO mice crossed with a mouse line expressing Channel-rhodopsin2 (ChR2-eYFP) in a Cre-dependent manner produces expression of ChR2-eYFP in Trpv1^Cre+DRG nociceptor cell bodies and central terminals in the spinal cord dorsal horn. Scale bars=50 m, throughout. (c,d) Blue light-evoked (473 nm, 1.0 mW/cm^2, 0.2 ms, 0.05 Hz) excitatory postsynaptic currents (EPSCs) recorded in laminae I and II outer spinal neurons in slices from MOR cKO and littermate controls. Numbered inset traces correspond to individual EPSCs before, during, and after wash-out of bath applied DAMGO (500 nM; 5 min duration). Scale bar=100 pA, 10 ms. (c) DAMGO-induced depression of EPSC amplitude and rebound LTP after washout (Control+LTP; n=8/15 neurons) in control slices. […] Error bars are mean±SEM.
Adult mice (6-8 weeks old) were anesthetized with isoflurane, decapitated, and the vertebral column was rapidly removed and placed in oxygenated ice-cold dissection solution (in mM: 95 NaCl, 2.5 KCl, 1.25 NaH2PO4, 26 NaHCO3, 50 sucrose, 25 glucose, 6 MgCl2, 1.5 CaCl2, and 1 kynurenic acid, pH 7.4, 320 mOsm). The lumbar spinal cord was isolated, embedded in a 3% agarose block, and transverse slices (400 Lm thick) were made using a vibrating microtome (Leica V T 1200S). Slices were incubated in oxygenated recovery solution (in mM: 125 NaCl, 2.5 KCl, 1.25 NaH2PO4, 26 NaHCO3, 25 glucose, 6 MgCl2, and 1.5 CaCl2, pH 7.4, 320 mOsm) at 35° C. for 1 hour before recording. Patch-clamp recording in whole-cell configuration was performed at 32° C. on lamina I or lamina II outer zone neurons visualized with an Olympus microscope (BX51WI age-MTI). Slices were perfused at ˜2 ml/min with recording solution (in mM: 125 NaCl, 2.5 KCl, 1.25 NaH2PO4, 26 NaHCO3, 25 glucose, 1 MgCl2, 2 CaCl2, pH 7.4, 320 mOsm). Recordings were performed in voltage-clamp mode at a holding potential of −70 mV. Thick-walled borosilicate pipettes, having a resistance of 3-6 MOhm, were filled with internal solution (in mM: 120 potassium gluconate, 20 KCl, 2 MgCl2, 5 MgATP, 0.5 NaGTP, 20 HEPES, 0.5 EGTA, PH 7.25 with KOH, ˜300 mOsm). All data were acquired using a Multiclamp 700B amplifier and pClamp10 software (Molecular Devices). Sampling rate was 10 kHz and data were filtered at 2 kHz. Analysis of eEPSC peak amplitudes was done with Clampfit software (pClamp10, Molecular Devices). Graphs and statistical analysis were generated with Igor Pro (Wave Metrics).
To isolate the TRPV1 nociceptor mediated EPSCs, we crossed the TRPV1-Cre mice with Ai32 mice (Rosa-CAG-LSL-ChR2(H134R)-EYFP-WPRE) (Bardoni et al., 2014) to limit the channelrhodopsin 2 expression specifically to TRPV1 primary afferents. […]

wild-type C57Bl/6J mice = experiment: Morphine and MNB combination in wild-type mice: nociceptive reflexes, affective-motivational behaviors, tolerance and OIH; assay type: in vivo, mouse
Description: (a) Temporal raster plot of nociception-induced sensory-reflexive and affective-motivational behaviors in an inescapable noxious environment (enclosed 52.5° C. hotplate). […] MNB doses 0.0-1.0 mg/kg, n=10; MNB 10 mg/kg, n=7 for reflexive tests and n=5 for affective-motivational tests. Best-fit lines were generated following non-linear regression analysis based on the % MPE for each mouse. One-way ANOVA+Bonferroni (left panels of b,d,f-k). ★ P<0.05. Error bars are mean±SEM. Overlaid points are individual animal scores. PID=post-injury day.
(b) Visual depiction of reflexive paw flinching behavior. (c) Latencies to the first paw flinch. (d) Number of paw flinches (see FIG. 17). (e) Visual depiction of hindpaw guarding behavior. (f) Latency to the first onset of hindpaw guarding. (g) Total duration of time spent engaged in hindpaw guarding. (h) Visual depiction of hindpaw attending. (i) Latency to the first onset of hindpaw attending. (j) Total duration of time spent engaging in hindpaw attending. (k) Visual depiction of escape jumping behavior. (1) Latency to the first jump. […] (m) Number of escape jumps. […] Error bars are±SEM.
Repeated Measures 2-way ANOVA+Bonferonni. ★ P<0.05. Error bars are mean±SEM.
(§1) To evaluate mechanical reflexive hypersensitivity (Weibel et al., 2013), we used a logarithmically increasing set of 8 von Frey filaments (Stoelting), ranging in gram force from 0.007 to 6.0 g. These were applied perpendicular to the plantar hindpaw with sufficient force to cause a slight bending of the filament. A positive response was characterized as a rapid withdrawal of the paw away from the stimulus filament within 4 s. Using the up-down statistical method (Solway et al., 2011), the 50% withdrawal mechanical threshold scores were calculated for each mouse and then averaged across the experimental groups.
(§2) To evaluate affective-motivational responses to an acute, focal thermal stimulus (Madisen et al., 2012), we applied either a single, unilateral 50 μl drop of 55° C. water or acetone (evaporative cooling) to the left hindpaw, and the duration of attending behavior was collected for up to 30 seconds after the stimulation. Only one stimulation per thermal drop was applied on a given testing session, in order to prevent behavioral sensitization that can result from multiple noxious stimulations and then averaging those responses.
To evaluate affective-motivational responses to a sustained, inescapable noxious thermal stimulus, mice were placed on a 52.5° C. hot plate for 45 seconds. A high-speed camera (on the side, level with the hot plate floor) was used to capture the movement, speed, velocity, and detailed reflexive and affective-motivational behaviors of the mice, as described above.
As opposed to the standard hot-plate test, all behaviors such as reflexive paw flinching (rapid flicking of the limb), paw attending (directed licking of the limb), paw guarding (intentional lift protection of the limb), and escape jumping for the duration of the trial were scored. This allowed the analysis of the high-speed videos, blinded to plate temperature or treatment, for the total time spent engaging in affective-motivational behaviors and the number of nociceptive reflexives, as opposed to the traditional metric of merely determining the latency to the first reflexive response.

laxation responses = details: subcutaneous MNB 5, 12.5 or 20 mg; clinical; cited from earlier work
[2] = test system: wild-type control and global MOR KO mice; experiment: Chronic morphine analgesic tolerance and OIH in wild-type control and global MOR KO mice (thermal tail immersion); assay type: in vivo, mouse
Description: These treatments were given for 6 days (Days 2-7). […] (b) Untransformed, raw sensory threshold scores for same data presented in FIG. 1, panels a and b. n=6 for all groups. ★ P<0.05. Error bars are±SEM.
(§3) The tail-immersion test was used to evaluate thermal reflexive hypersensitivity (Woolf, 1984) with the temperature of the water bath being set to 48-52.5° C. The mouse was gently restrained and 2 cm of the tip of the tail was submerged in the water bath, and the latency (seconds) to reflexively withdraw the tail from the water was recorded as a positive nociceptive reflex response. A maximal cut-off of 45-60 s was set to prevent tissue damage.

[3] = test system: MOR cKO mice and littermate controls; experiment: Acute morphine antinociception in MOR cKO mice and littermate controls (von Frey, tail immersion, hotplate); assay type: in vivo, mouse
Excerpt: as §1

[4] = test system: MOR cKO mice and littermate controls; experiment: 10 day chronic morphine schedule: antinociceptive tolerance and OIH in MOR cKO mice and littermate controls; assay type: in vivo, mouse; details: 10 mg/kg subcutaneous once daily for 10 days
Description: Nociceptive behavior (pre-morphine BL timepoints only): von Frey: F1, 30=9.863, P=0.004; tail immersion: F1, 30=0.7311; hotplate: F1, 30=[…]. Antinociception (post-morphine+30 min timepoints only): von Frey: F1, 30=4.812, P=0.0367; tail immersion: F1, 30=19.74, P<0.0001; hotplate: F1, 30=17.23, P=0.0004. […] Control, n=19; MOR cKO, n=13. BL=baseline. […] Repeated Measures Two-way ANOVA+Bonferroni (a,d,g and left panels of b,c,e,f,h,i). ★ P<0.05. Error bars are mean±SEM. Overlaid points are individual animal scores. BL=baseline.
as §3
The hotplate test was used to evaluate thermal-induced affective-motivational responses (Woolf, 1984) with the plate temperature being set to 50-52.5° C.). Mice were place on the plate and the latency (seconds) to the first appearance of an attending response (lick and/or bite at one or both hindpaws) was recorded as a positive affective-motivational response. A maximal cut-off of 45 s was set to prevent tissue damage.
Next the development of morphine antinociceptive tolerance and OIH in MOR cKO mice was evaluated. […] We measured thermal and mechanical nociceptive thresholds, and affective-motivational responses to noxious thermal stimuli prior to, and 30 min after, each daily injection, to evaluate OIH and tolerance, respectively (FIG. 3, panels a, d, g).

[5] = test system: mice with tibia fracture and bone pinning; details: morphine alone 10 mg/kg
Excerpt: (§4) Error bars are mean±SEM. Overlaid points are individual animal scores. PID=post-injury day.
as §4, §1, §2

[6] = test system: mice with chronic constriction injury (CCI) of the sciatic nerve; details: CCI + morphine alone 10 mg/kg
Excerpt: as §4, §1, §2

[7] = subcutaneous morphine 10 mg/kg, acute

## C[C@@H](NC(=O)[C@@H](N)Cc1ccc(O)cc1)C(=O)NCC(=O)N(C)[C@@H](Cc1ccccc1)C(=O)NCCO [DAMGO, [D-Ala^2, N-MePhe^4, Gly-ol^5]-enkephalin]
[1]; MOR cKO slices, 9 out of 9 neurons, 500 nM
  EPSC amplitude during DAMGO: 98±8.12 % of control
[1]; MOR cKO slices, 9 out of 9 neurons, after washout of 500 nM
  EPSC amplitude after DAMGO-washout: 96.2±11.9%
[1]; control slices, 8 out of 15 neurons, thirty minutes after washout of 500 nM
  EPSC amplitude after washout (LTP): 142.2±6.1 % of control
[1]; control slices, all 15 recorded neurons, 500 nM bath application, at 5 min of application
  depression of light-evoked EPSCs: 52±10.5 % inhibition

## C[N@+]1(CC2CC2)CC[C@]23c4c5ccc(O)c4O[C@H]2C(=O)CC[C@@]3(O)[C@H]1C5 [MNB, methylnaltrexone bromide]
wild-type C57Bl/6J mice; 45 s 52.5° C. hot plate, morphine 10 mg/kg + MNB 0.1-10.0 mg/kg
  dose-response of MNB effect on morphine tolerance, latency to nociceptive reflexes (paw flinch): bell-shaped dose-response curve
wild-type C57Bl/6J mice; MNB 0.1-10.0 mg/kg combined with morphine
  effect of MNB on morphine antinociceptive effects: did not alter morphine antinociceptive effects
wild-type C57Bl/6J mice; MNB 1 or 10 mg/kg + morphine for 10 days, von Frey and 52.5° C. hotplate
  onset of morphine antinociceptive tolerance and OIH, 10-day treatment: prevents the onset of morphine antinociceptive tolerance and OIH
wild-type C57Bl/6J mice; morphine 10 mg/kg + MNB 0.1-10.0 mg/kg once daily for 7 days
  onset of tolerance and OIH: dose-dependently prevents the onset of morphine antinociceptive tolerance and OIH
Laxation responses
  laxation responses, percentage of responders: higher percentage of responders after 5 or 12.5 mg subcutaneous MNB compared to a 20 mg dose

## CN1CC[C@]23c4c5ccc(O)c4O[C@H]2[C@@H](O)C=C[C@H]3[C@H]1C5.O=S(=O)(O)O [morphine, Morphine sulfate]
[2]; global MOR KO mice, twice daily escalating 10 to 40 mg/kg schedule
  OIH: no OIH
[2]; wild-type mice, chronic morphine, fixed once daily 10 mg/kg or twice daily escalating 10 to 40 mg/kg, subcutaneous
  analgesic tolerance and OIH: significant tolerance and OIH
[3]; MOR cKO mice, acute intrathecal 1 μg
  reflexive or affective-motivational antinociception: did not produce significant reflexive or affective-motivational antinociception
[3]; MOR cKO mice, subcutaneous 10 mg/kg
  reflexive and affective-motivational antinociception: maximal reflexive and affective-motivational antinociception
[3]; control mice, acute intrathecal 1 μg
  antinociception: robust antinociception
[4]; MOR cKO mice vs controls
  OIH for thermal and mechanical stimuli: significantly less OIH than controls
[4]; MOR cKO mice
  morphine antinociception over chronic treatment (tolerance): retained near full antinociceptive efficacy
[4]; littermate controls
  morphine antinociception over chronic treatment (tolerance): progressively diminished
wild-type C57Bl/6J mice; morphine alone 10 mg/kg once daily for 7 days, Day 7 compared to Day 1
  antinociceptive tolerance and OIH, reflexive and affective-motivational measures: robust antinociceptive tolerance and OIH
wild-type C57Bl/6J mice; [7]
  affective-motivational behaviors: effective at alleviating affective-motivational behaviors
  nociceptive reflexes: significantly reduce nociceptive reflexes
[5]; after 7 days of chronic treatment
  reduction of nociceptive or affective-motivational orthotrauma pain after chronic treatment: no longer effective
[5]; first administration
  antinociception, acute: acutely produced antinociception
[6]
  OIH: No indications of OIH
